Legend:
IDH1 R132C [1] = molecular target: T1, IDH1 R132C (Homo sapiens (Human), UniProt O75874, R132C); test: Biochemical assay for inhibition of mutant IDH1 R132C; conditions: tested in triplet
Text: (§1) The present disclosure provides a biochemical assay method for detecting the IDH inhibition and selectivity of the compounds by detecting IDH enzyme activity directly.
(§2) Wild-type IDH enzyme could convert NADP^+ to NADPH when it catalyzes the α-KG producing reaction. Mutant IDH enzyme could convert NADPH to NADP^+ when it catalyzes the D-2-HG producing reaction. So the activity of wild-type and mutant IDH1/2 could be measured by monitoring NADPH level change: in the reaction catalyzed by wild-type IDH1/2, the newly generated NADPH is utilized instantly by coupled diaphorase-resazurin reaction to generate resorufin which is fluorescent (at Excitation 544 nm, Emission 590 nm) and thus NADPH is monitored indirectly; while in the reaction catalyzed by mutant IDH1/2, NADPH is directly monitored as it is fluorescent (at Excitation 340 nm, Emission 460 nm). By monitoring the change of NADPH level in the reaction, the enzyme activity could be determined rapidly and efficiently, IC50 of a compound could also be assayed.
(§3) The test compounds were prepared into 50 mM stock solutions in DMSO and stored at −20° C. Each test compound stock was further diluted to obtain a 100× stock solution at a concentration of 200 μM, 100 μM, 50 μM, 25 μM, 12.5 jμM, 6.25 μM and 3.125 μM, respectively, for the final use on the day of test.
(§4) Inhibition of Mutant IDHJ (R132H or R132C):
(§5) Solution A was prepared by combining 1 M Tris-HCl pH7.5 (300 μL), 5 M NaCl (450 μL), 1 M MgCl2 (150 μL), 1 M DTT (15 μL), 20 mg/mL BSA (37.5 μL), 20 mM NADPH (20 μL), and 0.5 mM α-KG (40 μL), followed by adding deionized water to a final volume of 15 mL.
(§6) Reaction buffer was prepared by combining 1 M Tris-HCl pH 7.5 (200 μL), 5 M NaCl (300 μL), 1 M MgCl2 (100 μL), 1 M DTT (10 μL) and 20 mg/mL BSA (25 μL), followed by adding deionized water to a final volume of 10 mL.
(§7) Solution B was prepared by combining the reaction buffer (5 mL) and […] IDH1-R132H (5.21 μL) or 107 μM IDH1-R132C (4.67 μL).
(§8) 148 μL Solution A was added into each sample well of a 96-well plate P1, and then 2 μL of the test compound solution at each concentration and 2 μL of DMSO (negative control/blank) were added into individual sample well respectively. 50 μL of Solution B was added into each of the sample wells having test compounds and one sample well having DMSO only, and 50 μL of reaction buffer was added into another sample well having DMSO only, respectively. P1 was put into BioTek Synergy H4 Microplate reader (BioTek Instruments Inc., Winooski, U.S.), and the program was set as follows: 37° C., shake plate 5 seconds, run kinetic mode, total detection time 20 min, detection intervals 40 seconds, detection mode fluorescence (at Excitation 340 nm, Emission 460 nm). The data were exported, the relative enzyme activity and the half-maximal inhibitory concentration (IC50) for the test compound were calculated. Relative enzyme activity was calculated as the absolute value of the slope of the Emission 460 reads of each well plotted against time (which represents the conversion rate of ca-KG to 2-HG through IDH1 modulated utilization of NADPH). The Dose-response curve was drawn and the IC50 was calculated via fitting. The IDH inhibition and selectivity of each test compound can be evaluated according to the effect of the compounds on the IDH enzyme activity.
(§9) The IDH inhibition activity of the compounds were assessed according to Test 5 of the Biological evaluation section. The test for mutant IDH1 R132H/R132C inhibition of each compound was carried out in triplet. For IDH1 R132H, the enzyme activity of exemplary Compounds 16, 21, 22, 23, 24 and 31 is plotted as a function of logarithm of the concentration of the compound in FIGS. 8A-8C, 9A-9C, 10A-10C, 11A-11C, 12A-12C and 13A-13C, respectively. […]
Target sequence in this assay (O75874 whole entry R132C): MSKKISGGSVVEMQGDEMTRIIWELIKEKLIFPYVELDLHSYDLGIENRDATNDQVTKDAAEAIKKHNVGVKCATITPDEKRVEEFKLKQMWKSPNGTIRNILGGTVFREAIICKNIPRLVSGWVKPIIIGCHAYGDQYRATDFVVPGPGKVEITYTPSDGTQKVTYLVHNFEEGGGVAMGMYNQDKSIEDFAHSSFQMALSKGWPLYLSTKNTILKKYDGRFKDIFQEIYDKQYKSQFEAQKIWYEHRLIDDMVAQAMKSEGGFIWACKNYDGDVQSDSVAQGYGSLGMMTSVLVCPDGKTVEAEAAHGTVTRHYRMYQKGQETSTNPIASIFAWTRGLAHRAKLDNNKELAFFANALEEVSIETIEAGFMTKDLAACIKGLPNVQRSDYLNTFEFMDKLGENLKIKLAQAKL

IDH1 R132C [2] = molecular target: T1, IDH1 R132C; test: Improved cell-based assay: D-2-HG in HT1080 cells over-expressing D-2-HG dehydrogenase; conditions: 12 h
Text: The present disclosure also provides a cell based method for assaying IDH inhibition and selectivity of the compounds in human fibrosacoma cell line HT1080 and cholangiocarcinoma cell line HCCC 9810, which harbor endogenous heterozygous IDH1 R132C and R132H mutation respectively and accumulate D-2-HG Tumor derived IDH mutant lost its normal activity of producing α-KG and gained a new activity of producing D-2-HG D-2-HG is a metabolite specifically elevated in IDH mutated tumor samples.
By treating HT1080 and HCCC 9810 cells with an effective IDH inhibitor, the synthesis of D-2-HG is blocked, and D-2-HG concentration is decreased by the oxidation reaction catalyzed by D-2-HG dehydrogenase.
To perform a cell based IDH inhibitor assay, HT1080 and HCCC 9810 cells (or other cell lines harboring different IDH mutations) are cultured in DMEM supplemented with 10% FBS. The cells are treated with compounds of present disclosure at various different concentration. At various time points (between 4-24 hours) after the treatment, cell culture supernatants were removed and cells were washed with PBS for one or two times. Cell metabolites are extracted by adding 80% methanol (pre-chilled under −80° C.) in the cells, extract at 4° C. temperature for 60 min, centrifuged to remove any insoluble component. Metabolites (clear supernatant from the previous step) are lyophilized and reconstituted in pyridine containing 20 mg/ml O-methoxyamineHCl and are incubated at 70° C. for 40 minutes. After cooling down to room temperature, MTBSTFA (N-tert-Butyldimethylsilyl-N-methyltrifluoroacetamide, Sigma Aldrich) is added at a volume ratio of 4:7 (e.g., 20 μL MTBSTFA to 35 μL 20 mg/ml O-methoxyamineHCl solution) and derivation is performed at 70° C. for 30 minutes. The derived metabolites including D-2-HG are analyzed by Agilent 7890A-5750 GC/MS system. […] of the derived metabolite is injected into Agilent 7890A-5750 for D-2-HG concentration analysis. GC oven temperature is programmed from 140° C. to 260° C. at 10° C./min, from 260° C. to 310° C. at 8° C./min and hold at 310° C. for 5 min. The flow rate of carrier gas is 1 ml/min. The mass spectrometer is operated in the electron impact (EI) mode at 70 eV D-2-HG is normalized to endogenous glutamate.
The activity of IDHs in the presence of each compounds at different concentrations can be represented by relative D-2-HG concentration to negative control samples, and the IC50 value, the inhibition and selectivity for each compound can be evaluated.
The present disclosure also provides an improved cell-based assay for IDH inhibition and selectivity of the compounds, which involves stably over-expressing D-2-HG dehydrogenase in HT1080 and HCCC 9810 cells.
According to previous report, over expression of D-2-HG dehydrogenase decreases the half-life of D-2-HG in HT1080 cells (FIGS. 2A and 2B) [“D-2-hydroxyglutarate is essential for maintaining oncogenic property of mutant IDH-containing cancer cells but dispensable for cell growth”, Ma, S., et al., Oncotarget, (2015)], making the cells more sensitive to D-2-HG synthesis blockage by mutant IDH1 inhibitors. It will greatly increase the sensitivity and accurateness of this cell based assay. In the improved cell-based assay, all other steps are performed as disclosed in Test 6.
The D-2-HG inhibition activity of compounds was also assessed in the improved cell-based assay according to the method disclosed in Test 7 of the Biological evaluation section. HT1080 cells over-expressing D-2-HG dehydrogenase were cultured in 35 mm plate and treated with each of Compounds 1-37 at a concentration of 0.5 μM, 1 μM, 2.5 μM and 5 μM for 12 h, respectively, and the D-2-HG concentration was analysed. The inhibition ratio of D-2-HG in HT1080 cell by the exemplary Compounds 16, 21-24 and 31 at different concentrations were shown in Table 10.
Target sequence in this assay (O75874 2-414 R132C): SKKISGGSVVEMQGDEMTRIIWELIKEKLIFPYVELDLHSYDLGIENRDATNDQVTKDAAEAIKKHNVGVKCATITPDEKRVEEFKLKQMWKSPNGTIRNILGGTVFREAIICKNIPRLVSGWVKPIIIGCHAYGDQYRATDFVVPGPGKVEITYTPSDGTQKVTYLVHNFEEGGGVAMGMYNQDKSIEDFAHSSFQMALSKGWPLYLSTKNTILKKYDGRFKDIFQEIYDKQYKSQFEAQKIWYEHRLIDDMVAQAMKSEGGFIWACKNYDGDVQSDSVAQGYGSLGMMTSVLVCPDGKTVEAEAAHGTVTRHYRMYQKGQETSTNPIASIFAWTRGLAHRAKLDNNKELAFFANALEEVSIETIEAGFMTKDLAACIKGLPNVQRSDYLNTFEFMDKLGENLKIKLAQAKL

IDH1 R132H = IDH1 R132H (Homo sapiens (Human), UniProt O75874, R132H); test: Biochemical assay for inhibition of mutant IDH1 R132H; conditions: tested in triplet
Text: as §1, §2, §3, §4, §5, §6, §7, §8, §9

Sequence of IDH1 R132H (O75874 whole entry R132H): as the sequence (O75874 whole entry R132C) above, with C132H counted along it

SMILES | IC50 (IDH1 R132C [1]) | Inhibition ratio of D-2-HG in HT1080 cell (IDH1 R132C [2]; 0.5 μM) | Inhibition ratio of D-2-HG in HT1080 cell (IDH1 R132C [2]; 1 μM) | Inhibition ratio of D-2-HG in HT1080 cell (IDH1 R132C [2]; 2.5 μM) | Inhibition ratio of D-2-HG in HT1080 cell (IDH1 R132C [2]; 5 μM) | IC50 (IDH1 R132H)
CCN1Cc2c(ccnc2N[C@@H](C)c2ccc(Oc3cccc(F)c3)cc2)C1=O [Compound 21, (S)-2-ethyl-4-((1-(4-(3-fluorophenoxy)phenyl)ethyl)amino)-2,3-dihydro-1H-pyrrolo[3,4-c]pyridin-1-one] | < 1500 nM | 20.2% | 18.7% | 43.1% | 76.1% | < 1000 nM
CCN1Cc2c(ccnc2N[C@@H](C)c2ccc(Oc3ccccc3F)cc2)C1=O [Compound 22, (S)-2-ethyl-4-((1-(4-(2-fluorophenoxy)phenyl)ethyl)amino)-2,3-dihydro-1H-pyrrolo[3,4-c]pyridin-1-one] | < 1500 nM | 36.3% | 53.3% | 72.3% | 87.8% | < 1000 nM
CCN1Cc2c(ccnc2N[C@@H](C)c2ccc(Oc3ccc(C)cc3)c(F)c2)C1=O [Compound 24, (S)-2-ethyl-4-((1-(3-fluoro-4-(p-tolyloxy)phenyl)ethyl)amino)-2,3-dihydro-1H-pyrrolo[3,4-c]pyridin-1-one] | < 1500 nM | 45.5% | 54.6% | 72.1% | 92.1% | < 1000 nM
Cc1ccc(Oc2ccc([C@H](C)Nc3nccc4c3CN(C(C)C)C4=O)cc2)cc1 [Compound 31, (S)-2-isopropyl-4-((1-(4-(p-tolyloxy)phenyl)ethyl)amino)-2,3-dihydro-1H-pyrrolo[3,4-c]pyridin-1-one] | < 1500 nM | 36.9% | 57.8% | 68.7% | 89.1% | < 1000 nM

Reference: US10752626B2, “Iso-citrate dehydrogenase (IDH) inhibitor” (SHANGHAI METON PHARMACEUTICAL CO., LTD, priority 2016, dated 2020)
